Reference: the PolyMetriX glass transition set
± gives the standard deviation of the reports.

Row | glass transition temperature [°C] | Compound
1 | 119.00 | *Oc1ccc(Oc2cccc(C(=O)Oc3ccc(OC(=O)c4cccc(*)c4)cc3)c2)cc1 (repeat unit)
2 | 253.00 | *c1cccc(C(=O)Nc2ccc(Oc3cccc(Oc4ccc(NC(=O)c5cccc(N6C(=O)c7ccc(-c8ccc9c(c8)C(=O)N(*)C9=O)cc7C6=O)c5)cc4)c3)cc2)c1 (repeat unit)
3 | 175.00 | *CCCC1(CCCNC(=O)c2cccc(C(=O)N*)c2)c2ccccc2-c2ccccc21 (repeat unit)
4 | 282.50 | *c1ccc(OC(=O)c2cccc(C(=O)Oc3ccc(C4(*)OC(=O)c5ccccc54)cc3)c2)cc1 (repeat unit)
5 | 272.00 | *c1ccc(-c2cc(-c3ccc(-c4ccccc4)cc3)cc(-c3ccc(N4C(=O)c5ccc(NC(=O)Nc6ccc(-c7cc(-c8ccc(-c9ccccc9)cc8)cc(-c8ccc(NC(=O)Nc9ccc%10c(c9)C(=O)N(*)C%10=O)cc8)n7)cc6)cc5C4=O)cc3)n2)cc1 (repeat unit)
6 | 272.50 | *c1ccc(-c2nnc(-c3cccc(-c4nnc(*)n4-c4ccccc4)c3)n2-c2ccccc2)cc1 (repeat unit)
7 | 84.00 | *CC(*)(C)C(=O)OCCCOc1ccc2cc(C(=O)Oc3ccccc3)ccc2c1 (repeat unit)
8 | 206.50 | *NC(=O)Nc1ccc(Cc2ccc(NC(=O)Nc3cccc(*)n3)cc2)cc1 (repeat unit)
9 | 290.00 | *C(=O)c1ccc2c(c1)C(=O)N(c1ccc(Cc3ccc(C(=O)c4cccc(N5C(=O)c6ccc(*)cc6C5=O)c4)cc3)cc1)C2=O (repeat unit)
10 | 51.00 | *Oc1ccc(C(=O)OCCOCCOC(=O)c2ccc(OC(*)=O)cc2)cc1 (repeat unit)
11 | 97.00 | *CC(O)COC(=O)c1cccc(C(=O)OCC(O)COc2ccc(C(C)(C)c3ccc(O*)cc3)cc2)c1 (repeat unit)
12 | 40.00 | *CCOC(=O)c1ccc(-c2ccc(C(=O)O*)cc2)cc1 (repeat unit)
13 | 244.00 | *c1ccc(Oc2ccc(Oc3ccc(-c4nc(*)nc(-c5ccccc5)n4)cc3)cc2)cc1 (repeat unit)
14 | 92.00 | *Oc1ccc(C(C)(C)c2ccc(OC(*)(Oc3ccccc3)Oc3ccccc3)cc2)cc1 (repeat unit)
15 | 305.00 | *Nc1cccc2c(NC(=O)c3ccc(C(*)=O)cc3)cccc12 (repeat unit)
16 | 327.00 | *Nc1ccc(NC(=O)c2cc(NC(=O)c3ccncc3)cc(C(*)=O)c2)cc1 (repeat unit)
17 | 197.00 | *Oc1ccc(C2(c3ccc(OC(=O)CCCC(*)=O)cc3)c3cc(OC)ccc3-c3ccc([N+](=O)[O-])cc32)cc1 (repeat unit)
18 | 397.00 | *c1ccc(Oc2cccc(-n3c(=O)c4cc5c(=O)n(*)c(=O)c5cc4c3=O)c2)cc1 (repeat unit)
19 | 135.00 | *CCCCCCNC(=O)c1cc(NC(=O)C(C(C)CC)N2C(=O)c3ccccc3C2=O)cc(C(=O)N*)c1 (repeat unit)
20 | 149.00 | *Oc1ccc(C(=O)c2ccc(C(=O)c3ccc(*)c(C(C)C)c3)cc2)cc1C (repeat unit)
21 | 240.00 | *CC(*)c1ccc(B(Oc2cccc3cccnc23)c2ccc(C(C)(C)C)cc2)cc1 (repeat unit)
22 | 325.00 | *C(=O)Nc1ccc(S(=O)(=O)c2ccc(NC(=O)c3ccc4[nH]c(-c5cc(-c6nc7cc(*)ccc7[nH]6)cc(N6C(=O)c7ccccc7C6=O)c5)nc4c3)cc2)cc1 (repeat unit)
23 | 103.40 | *O[Si](*)(C)CCCCCCCCCCC(=O)Oc1ccc(-c2ccc(OC(=O)c3ccc(OCC)cc3)cc2)cc1 (repeat unit)
24 | 45.00 | *CC(*)(CC(=O)OCCc1ccccc1)C(=O)OCCc1ccccc1 (repeat unit)
25 | 237.00 | *CC(c1ccccc1)C1C(=O)N(c2ccc(C(C)(C)C)cc2)C(=O)C1* (repeat unit)
26 | 179.00 | *=Nc1cccc(/N=C(\c2ccccc2)c2ccc(C(=*)c3ccccc3)cc2)c1 (repeat unit)
27 | 59.00 | *CC(O)CN(CC(O)COc1ccc(C(C)(C)c2ccc(O*)cc2)cc1)c1ccc(/N=N/c2ccc([N+](=O)[O-])cc2)cc1 (repeat unit)
28 | 269.00 | *Oc1ccc(NC(=O)Nc2cc(NC(=O)Nc3ccc(*)cc3)ccc2C)cc1 (repeat unit)

Further lines, the compound ahead of its results:

Row | Compound | glass transition temperature [°C]
29 | *OC(=O)OCCCCCCCCCCOC(=O)OC1COC2C(*)COC12 (repeat unit) | 6.50
30 | */C=C/c1nc(/C=C/c2ccc3c(c2)c2cc(*)ccc2n3CCCCCC)c(C#N)c(/C=C/c2ccc(N(c3ccccc3)c3ccccc3)cc2)c1C#N (repeat unit) | 134.00
31 | *CC(*)C(=O)OCCC(C)OC (repeat unit) | -56.00
32 | *CC(*)c1ccc(S(=O)(=O)OCCC)cc1 (repeat unit) | 217.00
33 | *CC(*)(C)C(=O)OCCCCCCCCCCCCOc1ccc2cc(C(=O)Oc3ccccc3)ccc2c1 (repeat unit) | 12.00
34 | *CC(COc1ccc(O*)cc1)OC(C)=O (repeat unit) | 49.00
35 | *CC(*)(C)C#N (repeat unit) [Poly(methacrylonitrile)] | 101.67 ± 19
36 | *C(=O)c1ccc(Oc2ccc(S(=O)(=O)c3ccc(Oc4ccc(C(=O)c5ccc6c(c5)C(=O)N(c5ccc(Cc7ccc(N8C(=O)c9ccc(*)cc9C8=O)cc7)cc5)C6=O)cc4)cc3)cc2)cc1 (repeat unit) | 245.00
37 | *c1ccc2c(c1)C(=O)N(c1ccc(Oc3ccc(-c4ccc(Oc5ccc(N6C(=O)c7ccc(C(*)(C(F)(F)F)C(F)(F)F)cc7C6=O)cc5)cc4)cc3)cc1)C2=O (repeat unit) | 288.00
38 | *OP(=O)(Oc1ccc(*)cc1)OC1CCCCC1 (repeat unit) | 108.00
39 | *CC(*)(C)C(=O)OCC1COC(CP(=O)(OCC)OCC)O1 (repeat unit) | 115.00
40 | *CCOCCOC(=O)CCC(=O)O* (repeat unit) | -38.20
41 | *O[Si](*)(CC)CC (repeat unit) | -139.00
42 | *c1ccc(C(c2ccc(N3C(=O)c4cc(-c5ccc(C(C)(C)C)cc5)c(-c5cc6c(cc5-c5ccc(C(C)(C)C)cc5)C(=O)N(*)C6=O)cc4C3=O)cc2)(C(F)(F)F)C(F)(F)F)cc1 (repeat unit) | 381.00
43 | *c1cc(N2C(=O)c3ccc(P(=O)(c4ccccc4)c4ccc5c(c4)C(=O)N(*)C5=O)cc3C2=O)cc(C(F)(F)F)c1 (repeat unit) | 317.00
44 | *C(=O)c1ccc2c(c1)C(=O)N(c1ccc(Oc3ccc(C(=O)c4cccc(C(=O)c5ccc(Oc6ccc(N7C(=O)c8ccc(*)cc8C7=O)cc6)cc5)n4)cc3)cc1)C2=O (repeat unit) | 314.50
45 | *c1ccc(Oc2ccc(C(=O)c3ccc4cc(C(=O)c5ccc(Oc6ccc(-c7nc(-c8ccc(-c9nc(*)c(-c%10ccccc%10)[nH]9)cc8)[nH]c7-c7ccccc7)cc6)cc5)ccc4c3)cc2)cc1 (repeat unit) | 281.00
46 | *c1cc(CCCCCCO[Si](C)(C)C)c(*)s1 (repeat unit) | 10.00

Row | Compound | glass transition temperature [°C]
47 | *CCCCCCCCCCC(=O)NCCCCCC(=O)N* (repeat unit) | 25.50
48 | *C(=O)Oc1ccc(C(C)(C)c2ccc(OC(=O)c3ccc4c(c3)C(=O)N(c3ccc(-c5ccc(N6C(=O)c7ccc(*)cc7C6=O)cc5C)c(C)c3)C4=O)cc2)cc1 (repeat unit) | 166.00
49 | *CCCCc1ccc(-c2c(-c3ccccc3)cc(-c3cccc(-c4cc(-c5ccccc5)c(-c5ccc(*)cc5)c(-c5ccccc5)c4-c4ccccc4)c3)c(-c3ccccc3)c2-c2ccccc2)cc1 (repeat unit) | 180.00
50 | *c1ccc2c(c1)C(=O)N(c1ccc(Oc3ccc(C(=O)c4cccc(C(=O)c5ccc(Oc6ccc(N7C(=O)c8ccc(C(*)(C(F)(F)F)C(F)(F)F)cc8C7=O)cc6C(F)(F)F)cc5)n4)cc3)c(C(F)(F)F)c1)C2=O (repeat unit) | 206.40
51 | *C(=O)OCCCCCCCCCCCCCCCCCCCCCCOC(=O)c1ccc(N2C(=O)c3ccc(*)cc3C2=O)cc1 (repeat unit) | 44.00
52 | *CCCCCOC(=O)c1ccccc1C(=O)[O][Cd][O]C(=O)c1ccccc1C(=O)OCCCCCOC(=O)NCCCCCCNC(=O)O* (repeat unit) | -6.80
53 | */C(C)=C(/*)SCC (repeat unit) | 160.00
54 | *CCCCCC(=O)Oc1ccc(Oc2ccc(OC(=O)CCCCCn3c(=O)c4cc5c(=O)n(*)c(=O)c5cc4c3=O)cc2)cc1 (repeat unit) | 91.00
55 | *CCN(*)C(=O)c1cccc(F)c1F (repeat unit) | 110.00
56 | *c1ccc(Oc2cc3ccccc3cc2Oc2ccc(N3C(=O)c4ccc(Oc5cc6ccccc6cc5Oc5ccc6c(c5)C(=O)N(*)C6=O)cc4C3=O)cc2)cc1 (repeat unit) | 222.00
57 | *CC(*)(C)C(=O)OCC(=O)Nc1cc(C)on1 (repeat unit) | 128.00
58 | *Oc1ccc(*)cc1 (repeat unit) | 85.00
59 | */C=C/C(C)C(*)C(=O)OCCN(C)c1ccc(N(C)C)cc1 (repeat unit) | 20.50
60 | *Nc1ccc(*)cc1OC (repeat unit) | 90.00
61 | *CCN(CCOC(=O)c1cc(OC2CCN(c3ccc(S(=O)(=O)C(F)(F)C(F)(F)C(F)(F)C(F)(F)C(F)(F)C(F)(F)C(F)(F)C(F)(F)F)cc3)CC2)cc(C(=O)O*)c1)c1ccc(S(=O)(=O)C(F)(F)C(F)(F)C(F)(F)C(F)(F)C(F)(F)C(F)(F)C(F)(F)C(F)(F)F)cc1 (repeat unit) | 99.00
62 | *c1ccc(-c2ccc(-c3ccc(-c4ccc(-c5ccc6c(c5)C(=O)N(c5cccc(N7C(=O)c8ccc(*)cc8C7=O)c5)C6=O)cc4)cc3)cc2)cc1 (repeat unit) | 237.00
63 | *CCOc1ccc(S(=O)(=O)c2ccc(OCCOP(=O)(O*)Oc3ccc(OC)cc3)cc2)cc1 (repeat unit) | 52.00
